The molecules below were run against T1, human GPR40 (Homo sapiens, UniProt O14842) (assay: Inositol Phosphate Turnover (IP1) Assay). Conditions: HEK cells stably expressing human GPR40; CisBio IP-One kit; 60 minutes at 37 degrees; read-out: Human IP1 EC50.
T1 construct: expressed in transfected cells
T1 sequence (O14842 whole entry): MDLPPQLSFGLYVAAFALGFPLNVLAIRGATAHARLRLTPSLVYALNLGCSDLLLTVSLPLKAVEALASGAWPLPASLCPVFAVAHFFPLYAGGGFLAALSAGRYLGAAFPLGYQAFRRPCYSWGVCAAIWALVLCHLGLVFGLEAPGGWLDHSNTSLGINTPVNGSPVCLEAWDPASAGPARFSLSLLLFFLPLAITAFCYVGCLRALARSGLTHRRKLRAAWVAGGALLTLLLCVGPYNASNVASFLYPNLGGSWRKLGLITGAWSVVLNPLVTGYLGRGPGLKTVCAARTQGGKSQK
Assay type: cell-based
Protocol: Human GPR40 stable cell-lines were generated in HEK cells. The expression plasmids were transfected using lipofectamine (Life Technologies) following manufacturer's instructions. Stable cell-lines were generated following drug selection and single cell cloning. The assay was performed in 384-well format. HEK cells stably expressing human GPR40 were plated at 7500 cells per well in growth medium (DMEM/10% fetal calf serum). Cell plates were then incubated 16 hours at 37 degrees in a 5% CO2 incubator. Measurement of Inositol Phosphate Turnover (IP1) was performed using the CisBio IP-One kit (Part number 62IPAPEB). After the 16 hour incubation, the growth media was removed by centrifugation using the BlueWasher (AusWasher GUI Ver. v1.0.1.8) Protocol #21-“Light Dry” and 10 ul of stimulation buffer (prepared as described in the kit) was added to each well. In a separate plate, compounds were diluted in DMSO (200-fold over the final concentration in the assay well) and 50 nl was acoustically transferred to the appropriate well in the assay cell plate. The plates were then incubated for 60 minutes at 37 degrees in a 5% CO2 incubator. 10 ul of detection buffer (also prepared as described in the IP-One kit) was added to each well and the plates were incubated at room temperature for 60 minutes in the dark. The plates were then read in a Perkin Elmer EnVision or equivalent reader able to measure FRET. […] Data was normalized to % activity using a reference compound and EC50s determined using a standard 4-parameter fit.
For `CC(c1cc(Cl)ccc1OCC(F)(F)F)N1CCC2(CCc3ccc([C@H](C4CC4)[C@H](C)C(=O)O)cc3O2)CC1` (single isomer, unassigned) [Example 62, (2S,3R)-3-(1′-((R or S)-1-(5-chloro-2-(2,2,2-trifluoroethoxy)phenyl)ethyl)spiro [chroman-2,4′-piperidin]-7-yl)-3-cyclopropyl-2-methylpropanoic Acid], the EC50 was 386 nM. Work on `C[C@H](C(=O)O)[C@H](c1ccc2c(c1)OC1(CC2)CCC(N(C)c2ncccc2C(F)(F)F)CC1)C1CC1` (single isomer, unassigned) [Example 63] yielded an EC50 of 2.98 nM. Work on `C[C@H](C(=O)O)[C@H](c1ccc2c(c1)OC1(CC2)CCC(Nc2cc(C(F)(F)F)ccc2C(F)(F)F)CC1)C1CC1` (single isomer, unassigned) [Example 64] yielded an EC50 of 27.9 nM. `C[C@H](C(=O)O)[C@H](c1ccc2c(c1)OC1(CC2)CCC(Nc2ncccc2C(F)(F)F)CC1)C1CC1` (single isomer, unassigned) [Example 65] showed an EC50 of 28 nM. For `C[C@H](C(=O)O)[C@H](c1ccc2c(c1)OC1(CC2)CCC(Nc2cc(C(F)(F)F)ccc2C(F)(F)F)CC1)C1CC1` (single isomer, unassigned) [Example 67], the EC50 was 1.12 nM. With `C[C@H](C(=O)O)[C@H](c1ccc2c(c1)OC1(CC2)CCC(Nc2ncccc2C(F)(F)F)CC1)C1CC1` (single isomer, unassigned) [Example 68] the EC50 was 0.41 nM. For `C[C@H](C(=O)O)[C@H](c1ccc2c(c1)OC1(CC2)CCC(N(C)c2ncccc2C(F)(F)F)CC1)C1CC1` (single isomer, unassigned) [Example 69], the EC50 was 0.416 nM. `C[C@H](C(=O)O)[C@H](c1ccc2c(c1)OC1(CCCN([C@H](C)c3cc(C(F)(F)F)ccc3C(F)(F)F)C1)CC2)C1CC1` (single isomer, unassigned) [Example 73, (2S,3R)-3-((R or S)-1′-((R)-1-(2,5-bis(trifluoromethyl)phenyl)ethyl)spiro-[chroman-2,3′-piperidin]-7-yl)-3-cyclopropyl-2-methylpropanoic Acid] showed an EC50 of 186 nM. `C[C@H](C(=O)O)[C@H](c1ccc2c(c1)OC1(CCCN([C@H](C)c3cc(C(F)(F)F)ccc3C(F)(F)F)C1)CC2)C1CC1` (single isomer, unassigned) [Example 74, (2S,3R)-3-((S or R)-1′-((R)-1-(2,5-bis (trifluoromethyl)phenyl)-ethyl)spiro[chroman-2,3′-piperidin]-7-yl)-3-cyclopropyl-2-methylpropanoic acid] showed an EC50 of 18.3 nM. `C[C@H](C(=O)O)[C@H](c1ccc2c(c1)OC1(CCCN([C@@H](C)c3cc(C(F)(F)F)ccc3C(F)(F)F)C1)CC2)C1CC1` (single isomer, unassigned) [Example 75, (2S,3R)-3-((S or R)-1′-((S)-1-(2,5-bis (trifluoromethyl)phenyl)-ethyl)spiro[chroman-2,3′-piperidin]-7-yl)-3-cyclopropyl-2-methylpropanoic acid] showed an EC50 of 0.374 nM. Work on `CC(c1cc(Cl)ccc1F)N1CCC2(CCc3ccc([C@H](C4CC4)[C@H](C)C(=O)O)cc3O2)CC1` (single isomer, unassigned) [Example 78, (2S,3R)-3-(1′-((R or S)-1-(5-chloro-2-fluorophenyl)ethyl)spiro[chroman-2,4′-piperidin]-7-yl)-3-cyclopropyl-2-methylpropanoic Acid] yielded an EC50 of 14.3 nM. In the case of `CC(c1cc(Cl)cc(Cl)c1OC(F)F)N1CCC2(CCc3ccc([C@H](C4CC4)[C@H](C)C(=O)O)cc3O2)CC1` (single isomer, unassigned) [Example 79, (2S,3R)-3-cyclopropyl-3-(1′-((R or S)-1-(3,5-dichloro-2-(difluoromethoxy)phenyl)-ethyl)spiro[chroman-2,4′-piperidin]-7-yl)-2-methylpropanoic Acid], the EC50 is reported as 2.44 nM. Molecule `CC(c1cc(Cl)cc(Cl)c1OC(F)F)N1CCC2(CCc3ccc([C@H](C4CC4)[C@H](C)C(=O)O)cc3O2)CC1` (single isomer, unassigned) [Example 80, (2S,3R)-3-cycloprop-3-(1′-((S or R)-1-(3,5-dichloro-2-(difluoro-methoxy)phenyl)-ethyl)spiro[chroman-2,4′-piperidin]-7-yl)-2-methylpropanoic acid] has an EC50 of 3.22 nM. `C[C@H](C(=O)O)[C@H](c1ccc2c(c1)OC1(CC2)[C@@H]2CC[C@H]1CN([C@H](C)c1cc(C(F)(F)F)ccc1C(F)(F)F)C2)C1CC1` (single isomer, unassigned) [Example 81] was tested, and the EC50 was 102 nM. For `C[C@H](C(=O)O)[C@H](c1ccc2c(c1)OC1(CC2)[C@@H]2CC[C@H]1CN([C@@H](C)c1cc(F)ccc1C(F)(F)F)C2)C1CC1` (single isomer, unassigned) [Example 82], the EC50 was 249 nM. Work on `C[C@H](C(=O)O)[C@H](c1ccc2c(c1)OC1(CC2)[C@@H]2CC[C@H]1CN([C@H](C)c1cc(C(F)(F)F)ccc1C(F)(F)F)C2)C1CC1` (single isomer, unassigned) [Example 83] yielded an EC50 of 798 nM. Molecule `C[C@H](C(=O)O)[C@H](c1ccc2c(c1)OC1(CC2)[C@@H]2CC[C@H]1CN([C@@H](C)c1cc(F)ccc1C(F)(F)F)C2)C1CC1` (single isomer, unassigned) [Example 85] has an EC50 of 36.2 nM. `C[C@H](C(=O)O)[C@H](c1ccc2c(c1)OC1(CC2)CC(Nc2ncccc2C(F)(F)F)C1)C1CC1` (single isomer, unassigned) [Example 87] was tested, and the EC50 was 15.3 nM. Work on `C[C@H](C(=O)O)[C@H](c1ccc2c(c1)OC1(CC2)CC(Nc2ncccc2C(F)(F)F)C1)C1CC1` (single isomer, unassigned) [Example 88] yielded an EC50 of 57 nM. Work on `C[C@H](NC1CC2(CCc3ccc([C@H](C4CC4)[C@H](C)C(=O)O)cc3O2)C1)c1cc(C(F)(F)F)ccc1C(F)(F)F` (single isomer, unassigned) [Example 92] yielded an EC50 of 24.6 nM. `C[C@H](NC1CC2(CCc3ccc([C@H](C4CC4)[C@H](C)C(=O)O)cc3O2)C1)c1cc(C(F)(F)F)ccc1C(F)(F)F` (single isomer, unassigned) [Example 94] was tested, and the EC50 was 2.62 nM. For `C[C@H](C(=O)O)[C@H](c1ccc2c(c1)OC1(CC2)CC(NCc2cc(C(F)(F)F)ccc2C(F)(F)F)C1)C1CC1` (single isomer, unassigned) [Example 95], the EC50 was 48.6 nM. With `C[C@H](C(=O)O)[C@H](c1ccc2c(c1)OC1(CC2)CC(NCc2cc(C(F)(F)F)ccc2C(F)(F)F)C1)C1CC1` (single isomer, unassigned) [Example 96] the EC50 was 12.3 nM. Work on `C[C@H](C(=O)O)[C@H](c1ccc2c(c1)OC1(CC2)CC(N(C)Cc2cc(C(F)(F)F)ccc2C(F)(F)F)C1)C1CC1` (single isomer, unassigned) [Example 97] yielded an EC50 of 16.2 nM. Molecule `C[C@H](C(=O)O)[C@H](c1ccc2c(c1)OC1(CC2)CC(N(C)Cc2cc(C(F)(F)F)ccc2C(F)(F)F)C1)C1CC1` (single isomer, unassigned) [Example 98] has an EC50 of 1.62 nM. For `COc1ncc(C(F)(F)F)cc1C(C)N1CCC2(CCc3ccc([C@H](C4CC4)[C@H](C)C(=O)O)cc3O2)CC1` (single isomer, unassigned) [Example 102, (2S,3R)-3-cyclopropyl-3-(1′-((R or S)-1-(2-methoxy-5-(trifluoromethyl)pyridin-3-yl)ethyl)spiro-[chroman-2,4′-piperidin]-7-yl)-2-methylpropanoic Acid], the EC50 was 995 nM. `COc1ncc(C(F)(F)F)cc1C(C)N1CCC2(CCc3ccc([C@H](C4CC4)[C@H](C)C(=O)O)cc3O2)CC1` (single isomer, unassigned) [Example 103, (2S,3R)-3-cyclopropyl-3-(1′-((S or R)-1-(2-methoxy-5-(trifluoro-methyl)pyridin-3-yl)ethyl)spiro[chroman-2,4′-piperidin]-7-yl)-2-methylpropanoic acid] showed an EC50 of 140 nM. Work on `COc1ccc(C(F)(F)F)c(C(C)N2CCC3(CCc4ccc([C@H](C5CC5)[C@H](C)C(=O)O)cc4O3)CC2)n1` (single isomer, unassigned) [Example 104, sodium (2S,3R)-3-cyclopropyl-3-(1′-((R or S)-1-(6-methoxy-3-(trifluoromethyl)pyridin-2-yl)ethyl)spiro[chroman-2,4′-piperidin]-7-yl)-2-methylpropanoate] yielded an EC50 of 59.8 nM. `COc1ccc(C(F)(F)F)c(C(C)N2CCC3(CCc4ccc([C@H](C5CC5)[C@H](C)C(=O)O)cc4O3)CC2)n1` (single isomer, unassigned) [Example 105, sodium (2S,3R)-3-cyclo-propyl-3-(1′-((S or R)-1-(6-methoxy-3-(trifluoromethyl)pyridin-2-yl)ethyl)-spiro-[chroman-2,4′-piperidin]-7-yl)-2-methylpropanoate] gave an EC50 of 126 nM. With `COc1cc(C(C)N2CCC3(CCc4ccc([C@H](C5CC5)[C@H](C)C(=O)O)cc4O3)CC2)c(C(F)(F)F)cn1` (single isomer, unassigned) [Example 106, sodium (2S,3R)-3-cyclo-propyl-3-(1′-((R or S)-1-(2-methoxy-5-(trifluoro-methyl)pyridin-4-yl)ethyl)spiro[chroman-2,4′-piperidin]-7-yl)-2-methylpropanoate] the EC50 was 15.6 nM.
